Molecular target: T1, glucocorticoid receptor (Homo sapiens, UniProt P04150)
T1 construct: endogenous in cells; ATCC cat
T1 sequence (P04150 1-777): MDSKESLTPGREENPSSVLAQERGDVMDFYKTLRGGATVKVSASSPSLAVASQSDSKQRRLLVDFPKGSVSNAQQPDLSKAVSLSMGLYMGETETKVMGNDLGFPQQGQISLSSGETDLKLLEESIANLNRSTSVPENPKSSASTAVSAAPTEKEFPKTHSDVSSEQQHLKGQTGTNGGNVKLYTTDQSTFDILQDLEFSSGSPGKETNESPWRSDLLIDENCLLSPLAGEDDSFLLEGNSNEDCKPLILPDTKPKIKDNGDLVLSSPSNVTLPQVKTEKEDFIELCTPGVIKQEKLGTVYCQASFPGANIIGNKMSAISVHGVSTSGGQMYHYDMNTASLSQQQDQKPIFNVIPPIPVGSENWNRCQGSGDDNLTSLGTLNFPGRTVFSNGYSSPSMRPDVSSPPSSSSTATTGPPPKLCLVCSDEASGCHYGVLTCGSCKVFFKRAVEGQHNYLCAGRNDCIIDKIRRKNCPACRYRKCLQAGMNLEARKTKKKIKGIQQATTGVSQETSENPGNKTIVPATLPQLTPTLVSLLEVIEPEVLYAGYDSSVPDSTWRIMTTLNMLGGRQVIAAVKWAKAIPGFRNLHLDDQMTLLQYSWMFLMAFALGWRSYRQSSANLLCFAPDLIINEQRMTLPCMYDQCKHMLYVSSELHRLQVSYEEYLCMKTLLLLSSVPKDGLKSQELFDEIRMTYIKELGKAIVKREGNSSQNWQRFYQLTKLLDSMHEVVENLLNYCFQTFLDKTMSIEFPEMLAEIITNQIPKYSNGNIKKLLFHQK
Assay: Hep G2 TAT Ki: inhibition of dexamethasone-induced TAT in HepG2 cells (96 well)
Format: cell-based
Details: challenge of 100 nM dexamethasone, IC50 converted to Ki by Cheng and Prusoff equation
Method in brief: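 Cells lysed 15 min at 4 °C; TAT enzyme reaction 2 h at 37 °C, stopped with KOH, 30 min further at 37 °C. Inhibition fitted to 4-parameter logistic.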

Row | Compound | Ki
1 | Cc1ncc(S(=O)(=O)N2CCN(CC3CCC3)C(c3cc4cnn(-c5ccc(F)cc5)c4cc3C)C2)s1 (single isomer, unassigned) [Example 124, 5-((4-(cyclobutylmethyl)-3-(1-(4-fluorophenyl)-6-methyl-1H-indazol-5-yl)piperazin-1-yl)sulfonyl)-2-methylthiazole] | 14 nM
2 | CC(=O)CN1CCN(S(=O)(=O)c2cnn(C)n2)CC1c1cc2cnn(-c3ccc(F)cc3)c2cc1C (single isomer, unassigned) [Example 125, 1-(2-(1-(4-fluorophenyl)-6-methyl-1H-indazol-5-yl)-4-((2-methyl-2H-1,2,3-triazol-4-yl)sulfonyl)piperazin-1-yl)propan-2-one] | 87 nM
3 | Cc1cc2c(cnn2-c2ccc(F)cc2)cc1[C@H]1CN(S(=O)(=O)c2cnn(C)n2)C[C@@H](C)N1CC(C)C (single isomer, unassigned) [Example 126] | 62 nM
4 | Cc1cc2c(cnn2-c2ccc(F)cc2)cc1C1CN(S(=O)(=O)c2cnn(C)c2)CCN1CCC(F)(F)F (single isomer, unassigned) [Example 128, 1-(4-fluorophenyl)-6-methyl-5-(4-((1-methyl-1H-pyrazol-4-yl)sulfonyl)-1-(3,3,3-trifluoropropyl)piperazin-2-yl)-1H-indazole] | 14 nM
5 | Cc1cc2c(cnn2-c2ccc(F)cc2)cc1C1CN(S(=O)(=O)c2cnn(C)c2C)CCN1CCC(F)(F)F (single isomer, unassigned) [Example 129, 5-(4-((1,5-dimethyl-1H-pyrazol-4-yl)sulfonyl)-1-(3,3,3-trifluoropropyl)piperazin-2-yl)-1-(4-fluorophenyl)-6-methyl-1H-indazole] | 13 nM
6 | Cc1cc2c(cnn2-c2ccc(F)cc2)cc1C1CN(S(=O)(=O)c2ccc(C#N)cc2)CCN1CCC(F)(F)F (single isomer, unassigned) [Example 130, 4-((3-(1-(4-fluorophenyl)-6-methyl-1H-indazol-5-yl)-4-(3,3,3-trifluoropropyl)piperazin-1-yl)sulfonyl)benzonitrile] | 7.7 nM
7 | CCn1cc(S(=O)(=O)N2CCN(CCC(F)(F)F)C(c3cc4cnn(-c5ccc(F)cc5)c4cc3C)C2)cn1 (single isomer, unassigned) [Example 131, 5-(4-((1-ethyl-1H-pyrazol-4-yl)sulfonyl)-1-(3,3,3-trifluoropropyl)piperazin-2-yl)-1-(4-fluorophenyl)-6-methyl-1H-indazole] | 13 nM
8 | Cc1cc2c(cnn2-c2ccc(F)cc2)cc1C1CN(S(=O)(=O)c2cccnc2)CCN1CCC(F)(F)F (single isomer, unassigned) [Example 132, 1-(4-fluorophenyl)-6-methyl-5-(4-(pyridin-3-ylsulfonyl)-1-(3,3,3-trifluoropropyl)piperazin-2-yl)-1H-indazole] | 13 nM
9 | Cc1ncc(S(=O)(=O)N2CCN(CCC(F)(F)F)C(c3cc4cnn(-c5ccc(F)cc5)c4cc3C)C2)s1 (single isomer, unassigned) [Example 133, 5-((3-(1-(4-fluorophenyl)-6-methyl-1H-indazol-5-yl)-4-(3,3,3-trifluoropropyl)piperazin-1-yl)sulfonyl)-2-methylthiazole] | 11 nM
10 | Cc1nc(S(=O)(=O)N2CCN(CCC(F)(F)F)C(c3cc4cnn(-c5ccc(F)cc5)c4cc3C)C2)cs1 (single isomer, unassigned) [Example 134, 4-((3-(1-(4-fluorophenyl)-6-methyl-1H-indazol-5-yl)-4-(3,3,3-trifluoropropyl)piperazin-1-yl)sulfonyl)-2-methylthiazole] | 6.5 nM
11 | CCn1ncc(S(=O)(=O)N2CCN(CCC(F)(F)F)C(c3cc4cnn(-c5ccc(F)cc5)c4cc3C)C2)n1 (single isomer, unassigned) [Example 135, 5-(4-((2-ethyl-2H-1,2,3-triazol-4-yl)sulfonyl)-1-(3,3,3-trifluoropropyl)piperazin-2-yl)-1-(4-fluorophenyl)-6-methyl-1H-indazole] | 23 nM

From US12098144B2, “Piperazine indazole glucocorticoid receptor antagonists” (Corcept Therapeutics Incorporated, priority 2021, dated 2024)
